The values that follow come from patent US9050264B2, “Cellulose capsules and methods for making them” (University of Iowa Research Foundation, priority 2009, dated 2015).

Common to all, as to format: physicochemical
Data set [1] is described as follows: Release of KCl from cellulose capsules in unstirred aqueous urea solutions (potassium ion selective electrode). The settings on record: cellulose capsule (shell 0.07-0.10 mm), KCl 500 mg, unstirred 200 mL, 37 C. As to the method: Cellulose capsule shells (shell thickness 0.07-0.10 mm), prepared according to Example 2, were filled with KCl (500 mg) and subjected to the release study in the unstirred dissolution medium (200 mL) containing 0.0, 1.5, 3.0, 5.5, or 8.0 M urea at 37±0.5° C. using a Hansen Research USP II basket apparatus (Hansen Research Corp., Chatsworth, Calif.). The amount of KCl released was analyzed using a potassium ion selective electrode connected to a pH meter (Orion model 420, Fisher Scientific, Inc., Pittsburgh, Pa.).

Data set [2] is described as follows: Dissolution study of cellulose:Eudragit S100 capsule shells in pH 3.0 and pH 7.4 buffers (USP II basket, HPLC). The conditions noted are these: Cellulose:Eudragit (90:10%, w/w) capsule shell ~0.08 mm, acetaminophen 50 mg + anhydrous lactose 150 mg. As to the method:
Cellulose:Eudragit (90:10%, w/w) capsule shells (shell thickness˜0.08 mm) prepared according to Example 2 were filled with a homogeneously mixed powder blend of acetaminophen (50 mg) and anhydrous lactose (150 mg) and subjected to dissolution study first in pH 3.0 phthalate buffer (900 mL) for 3 h at 37±0.5° C. and 100±2 r.p.m followed by in pH 7.4 phosphate buffer (900 mL) for 5 h at 37±0.5° C. and 100±2 r.p.m. using a Hansen Research USP II basket apparatus (Hansen Research Corp., Chatsworth, Calif.). The amount of drug released was determined by HPLC according to the method described above. […] The higher steady-state release rate observed for acetaminophen at pH 7.4 is attributed to the dissolution of Eudragit, causing the capsule shell to become more porous.
Cellulose, cellulose-Eudragit (90:10) and cellulose:Eudragit (90:10%, w/w) capsule shells (shell thickness˜0.08 mm) were prepared according to Example 2. The dissolution test was carried out in pH 7.4 phosphate buffer (900 mL) for 5 h at 37±0.5° C. and 100±2 r.p.m. using a Hansen Research USP II basket apparatus (Hansen Research Corp., Chatsworth, Calif.). The amount of drug released was determined by HPLC according to the method described above. FIG. 12 compares the release results from the three capsule systems. The steady-state release rates calculated were 1.8, 3.1 and 4.6 mg/h, respectively.

Data set [3] can be described thus: Dissolution study of acetaminophen release from cellulose capsules in water (USP II basket, HPLC). The conditions noted are these: for release rate: acetaminophen 50 mg + lactose 150 mg, water 900 mL, 37 C, 100 r.p.m. As to the method: Cellulose capsule shells of three different shell thicknesses (0.05, 0.06 and 0.07 mm) were prepared from the methylolcellulose solution (cellulose content 4.4%, w/w) according to Example 2. They were filled with a homogeneously mixed powder blend of acetaminophen (50 mg) and lactose (150 mg). The dissolution study was performed in water (900 mL) at 37±0.5° C. and 100±2 r.p.m. using a Hansen Research USP II basket apparatus (Hansen Research Corp., Chatsworth, Calif.). The amount of drug released was determined by high performance liquid chromatography (HPLC) using an absolute calibration method and a fully automated Shimadzu LC-6A high performance liquid chromatograph, equipped with a C18 analytical column (Supelco—Sigma Aldrich, Bellefonte, Pa.). The drug was eluted with a 1:3 methanol:water mixture at a flow rate of 0.5 mL/min and detected at a wavelength of 243 nm. The release of acetaminophen increased linearly with time (see FIG. 4A).
Cellulose capsule shells (shell thickness 0.07-0.10 mm) prepared according to Example 2 were filled with 50, 100 and 200 mg of acetaminophen. The release studies were carried out in purified water (900 mL) at 37±0.5° C. and 100±2 r.p.m. The amount of acetaminophen released over time was determined by HPLC using conditions described above.
Cellulose capsule shells (shell thickness 0.07-0.10 mm), prepared according to Example 2, were filled with a homogeneously mixed powder blend of acetaminophen (100 mg) and 15, 50, 100, 150, or 200 mg of polyethylene glycol (PEG) 8000 (corresponding to the percent weight ratio of 87:13, 67:33, 50:50, 40:60, or 33:67, respectively, for the total powder fill in the capsule). The release studies were performed in purified water (900 mL) at 37±0.5° C. and 100±2 r.p.m. using the Hansen Research USP II basket apparatus (Hansen Research Corp., Chatsworth, Calif.). The amount of acetaminophen released was determined by HPLC as described above. […] Above 60% w/w PEG 8000 in the formulation, there was no change in the release rate compared to the rate at 50% PEG in the mixture.
Cellulose capsule shells (shell thickness 0.07-0.1 mm) prepared according to Example 2 were filled with acetaminophen (100 mg) and 50, 100 and 200 mg potassium chloride (KCl) (corresponding to the weight ratio of 33:67, 50:50 or 67:33, respectively, for the total powder fill in the capsule). The amounts of acetaminophen released at different times were determined by HPLC, following the procedure described above.

Data set [4] in a line: Release of diphenhydramine hydrochloride from cellulose capsules in water (USP II basket, HPLC). The settings on record: cellulose capsule, water 900 mL. As to the method:
Cellulose capsule shells (shell thickness 0.07-1.0 mm), prepared according to Example 2, were filled with diphenhydramine hydrochloride and lactose (400 mg) mixed in different weight-by-weight ratios (50:50, 25:75, 12.5:87.5, 6.25:93.75 or 3.75:96.25 weight ratios of diphenhydramine hydrochloride and lactose, respectively). The release study was performed in water (900 mL) at 37±0.5° C. and 100±2 r.p.m. using a Hansen Research USP II basket apparatus (Hansen Research Corp., Chatsworth, Calif.). The amount of drug released was determined by HPLC using a fully automated Shimadzu LC-10A high performance liquid chromatograph, equipped with a C18 analytical column (Supelco). The drug was eluted with a 1:4 (v/v) mixture of methanol:water (containing 1% triethylamine and 2% glacial acetic acid) at a flow rate of 0.2 mL/min and detected at a wavelength of 256 nm. […] The steady state release rates mentioned above depended linearly with the calculated osmotic pressure developed inside the capsule shell.

Structures can show the parent of a compound that is named as a salt.

Consider `[Cl-].[K+]` [KCl, potassium chloride], for which the “steady state release rate” value is given as 142.8 mg/h in data set [1] (0.0 M urea); 115.8 mg/h in data set [1] (1.5 M urea); 100.2 mg/h in data set [1] (3.0 M urea); 73.8 mg/h in data set [1] (5.5 M urea); 46.2 mg/h in data set [1] (8.0 M urea).
For `CC(=O)Nc1ccc(O)cc1` [acetaminophen], the steady-state release rate in data set [2] (pH 3.0 phthalate buffer, 3 h) was 2.68 mg/h; in data set [2] (pH 7.4 phosphate buffer, 5 h), 4.76 mg/h; in data set [3] (cellulose capsule (shell 0.07-0.10 mm) filled with 50 mg acetaminophen, purified water) it was 3.05 mg/h; in data set [3] (cellulose capsule (shell 0.07-0.10 mm) filled with 100 mg acetaminophen, purified water), 3.43 mg/h; in data set [3] (cellulose capsule (shell 0.07-0.10 mm) filled with 200 mg acetaminophen, purified water), 3.15 mg/h; in data set [3] (cellulose capsule (shell 0.07-0.10 mm), 33:67 (% w/w) acetaminophen:PEG 8000 (100 mg + 200 mg), purified water), 7.38 mg/h. Further, the steady-state release rate in data set [3] (cellulose capsule (shell 0.07-0.1 mm), 33:67 acetaminophen:KCl mixture) is 9.94 mg/h; in data set [3] (cellulose capsule (shell 0.07-0.10 mm), 40:60 (% w/w) acetaminophen:PEG 8000 (100 mg + 150 mg), purified water), 7.17 mg/h; in data set [3] (cellulose capsule (shell 0.07-0.10 mm), 50:50 (% w/w) acetaminophen:PEG 8000 (100 mg + 100 mg), purified water) it was 6.95 mg/h; in data set [3] (cellulose capsule (shell 0.07-0.1 mm), 50:50 acetaminophen:KCl mixture) it was 10.14 mg/h; in data set [3] (cellulose capsule (shell 0.07-0.10 mm), 67:33 (% w/w) acetaminophen:PEG 8000 (100 mg + 50 mg), purified water) it was 6.62 mg/h; in data set [3] (cellulose capsule (shell 0.07-0.1 mm), 67:33 acetaminophen:KCl mixture) it was 11.41 mg/h. Moreover, the steady-state release rate in data set [3] (cellulose capsule (shell 0.07-0.10 mm), 87:13 (% w/w) acetaminophen:PEG 8000 (100 mg + 15 mg), purified water) is given as 5.92 mg/h. Also, the release rate in data set [3] (cellulose capsule shell thickness 0.05 mm) was 5.25 mg/h; in data set [3] (cellulose capsule shell thickness 0.06 mm) it was 4.30 mg/h; in data set [3] (cellulose capsule shell thickness 0.07 mm) it was 3.06 mg/h.
As for `CN(C)CCOC(c1ccccc1)c1ccccc1` [diphenhydramine hydrochloride], the steady-state release rate in data set [4] (3.75:96.25 diphenhydramine hydrochloride:lactose core powder mixture (400 mg)) worked out at 3.92 mg/h; in data set [4] (6.25:93.75 diphenhydramine hydrochloride:lactose core powder mixture (400 mg)) it was 7.58 mg/h; in data set [4] (12.5:87.5 diphenhydramine hydrochloride:lactose core powder mixture (400 mg)) it was 12.70 mg/h; in data set [4] (25:75 diphenhydramine hydrochloride:lactose core powder mixture (400 mg)) it was 34.17 mg/h; in data set [4] (50:50 diphenhydramine hydrochloride:lactose core powder mixture (400 mg)) it was 67.96 mg/h.
